In the test the test system is HT-29 cells. As to the kind of experiment: Cellular uptake of FITC-BSA by CLSM in HT-29 cells. As to conditions: 37° C., 3 h, P/T ratio 1/3 by weight. The class given is cell-based. The method, then:
Cellular Uptake of Protein-Loaded Telodendrimer Nanoparticles. Green fluorescent FITC-BSA molecules were used to probe the intracellular trafficking of proteins without and with telodendrimer nanoparticles. HT-29 colon cancer cells were incubated with free FITC-BSA and FITC-BSA-loaded telodendrimer nanoparticles, and were imaged by confocal laser scanning microscopy (CLSM). […] Only a small amount of the FITC-BSA molecules loaded in the nanoparticles of the telodendrimers containing four guanidine groups at a P/T ratio of 1/3 by weight could be delivered to the cellular interiors (green fluorescence in FIG. 6b). […] The poor intracellular protein delivery efficiency of the telodendrimers containing four guanidine groups may restrict their applications for intracellular delivery, however, this endows them with the potential to serve as nanocarriers for systemic delivery of proteins such as insulin. […]
Cellular Uptake. The cellular uptake and intracellular trafficking of the protein-incorporated nanoparticles were determined by fluorescence microscopy. […] The slides were mounted with cover slips and cells were imaged with a […] FV1000 laser scanning confocal fluorescence microscope.

The source of these data is patent US11649326B2, “Functional, segregated, charged telodendrimers and nanocarriers and methods of making and using same” (The Research Foundation for the State University of New York, priority 2015, dated 2023).

Turning to “FITC-BSA: Fluorescein isothiocyanate (FITC) labeled bovine serum albumin, fluorescent model protein”, the “cellular uptake of FITC-BSA” value is listed as “could hardly enter the cells spontaneously”.
